Source: publication PMC6792352, “Limited Chemical Structural Diversity Found to Modulate Thyroid Hormone Receptor in the Tox21 Chemical Library” (Environmental Health Perspectives, 2019)
Counter-ions that a name gives are not always drawn.

experiment: in vitro; settings: rat, gh3-tre-luc cells, AC50 (uM) modified / 1000

Point of comparison: `CCN(CC)CCOC(=O)C1(c2ccccc2)CCCC1` [Caramiphen edisylate], CC50 at 24 h 43.2 µM. Against it:
- CC1CC[C@@H]2C[C@H]1C2(C)C (some centres unmarked) [Pinane] — higher, > 90 µM
- CCCCCCCCCCCCCCCC(=O)OC [Methyl hexadecanoate] — not separable, > 30 µM
- O=CN1CCOCC1 [4-Morpholinecarboxaldehyde] — higher, > 90 µM
- CC(=O)C(Cl)C(=O)N(C)C (centres unmarked) [2-Chloro-N,N-dimethyl-3-oxobutanamide] — higher, > 90 µM
- O=Cc1c(Cl)cccc1Cl [2,6-Dichlorobenzaldehyde] — higher, > 90 µM
- CCN(CCC#N)c1ccccc1 [3-[Ethyl(phenyl)amino]propanenitrile] — higher, > 90 µM
- COC(c1ccccc1)(c1ccccc1)[C@H](Oc1nc(C)cc(C)n1)C(=O)O [Ambrisentan] — higher, > 50 µM
- CCCC(c1cc(C(C)(C)C)c(O)cc1C)c1cc(C(C)(C)C)c(O)cc1C [4,4'-Butane-1,1-diylbis(2-tert-butyl-5-methylphenol)] — 11-fold lower, 3.97 µM
- COc1c(N2CCNC(C)C2)c(F)cc2c(=O)c(C(=O)O)cn(C3CC3)c12 (centres unmarked) [Gatifloxacin] — higher, > 50 µM
- COC(COC(N)=O)C1=C(N2CC2)C(=O)C(C)=C(N2CC2)C1=O (centres unmarked) [Carboquone] — 78-fold lower, 0.556 µM
- CC(C)OC=O [Isopropyl formate] — higher, > 100 µM
- C=CCNCC=C [Diallylamine] — higher, > 90 µM
- O=C(CCNNC(=O)c1ccncc1)NCc1ccccc1 [Nialamide] — higher, > 50 µM
- CCN(C)C(=O)Oc1cccc([C@H](C)N(C)C)c1 [Rivastigmine tartrate] — higher, > 50 µM
- CN1CCC(CN2c3ccccc3Sc3ccccc32)C1 (centres unmarked) [Methdilazine hydrochloride] — 4.9-fold lower, 8.75 µM
- O=C(O)c1nc(=O)[nH]c(=O)[nH]1 [Potassium oxonate] — higher, > 50 µM
- c1ccc2sc(SSc3nc4ccccc4s3)nc2c1 [2,2'-Dithiobisbenzothiazole] — higher, > 50 µM
- Cc1nc2cc(Cl)ccc2[nH]1 [5-Chloro-2-methyl-1H-benzimidazole] — higher, > 90 µM
- CC1(C)[C@@H]2CC[C@@]1(C)C(=O)C2 [D-Camphor] — higher, > 90 µM
- CC[N+](C)(C)c1cccc(O)c1 [Edrophonium chloride] — not separable, > 20 µM
- C=CCCCCCC [1-Octene] — higher, > 90 µM
- CC(=O)N(O)CCCCCNC(=O)CCC(=O)N(O)CCCCCNC(=O)CCC(=O)N(O)CCCCCN [Deferoxamine mesylate] — not separable, > 20 µM
- O=C(O)c1ccccc1[N+](=O)[O-] [2-Nitrobenzoic acid] — higher, > 90 µM
- CC=C(Cl)Cl [1,1-Dichloropropene] — higher, > 90 µM
- CN[C@@H]1[C@@H](O[C@H]2O[C@H](CO)[C@@H](N)[C@H](O)[C@H]2O)O[C@H]2C[C@@H](N)[C@@H](O[C@H]3[C@H](O)[C@@H](O)[C@H](N)C[C@@H]3N)O[C@@H]2[C@@H]1O [Apramycin] — not separable, > 20 µM
- O=c1[nH]cnc2nc[nH]c12 [Hypoxanthine] — higher, > 50 µM
- O=C(O)CCC(=O)C(=O)O [alpha-Ketoglutaric acid] — higher, > 90 µM
- CC(Cc1ccc(O)cc1)NCC(O)c1cc(O)cc(O)c1 (centres unmarked) [Fenoterol hydrobromide] — higher, > 50 µM
- C=COCCCCO [4-(Ethenyloxy)butan-1-ol] — higher, > 90 µM
- CCCC[n+]1cccc(C)c1 [1-Butyl-3-methylpyridinium bromide] — higher, > 90 µM
- CC(C)(C)CC(C)(C)c1ccc(Nc2ccc(C(C)(C)CC(C)(C)C)cc2)cc1 [4,4'-bis(1,1,3,3-Tetramethylbutyl)diphenylamine] — not separable, > 5 µM
- CCO/N=C(\CC)C1=C(O)CC(c2c(C)cc(C)cc2C)CC1=O (centres unmarked) [Tralkoxydim] — higher, > 90 µM
- C(=C\c1ccccc1)/c1ccccc1 [trans-Stilbene] — higher, > 100 µM
- CSc1nc2cc(Cl)c(Oc3cccc(Cl)c3Cl)cc2[nH]1 [Triclabendazole] — 1.5-fold lower, 28.5 µM
- OCC1(CO)COCOC1 [1,3-Dioxane-5,5-diyldimethanol] — higher, > 90 µM
- Cc1ccc2nc(N)[nH]c(=O)c2c1Sc1ccncc1 [Nolatrexed dihydrochloride] — higher, > 50 µM
- CC(C)(C)NCC(O)c1ccc(O)c(CO)c1 (centres unmarked) [Albuterol] — higher, > 90 µM
- C[Si](C)(C)O[Si](C)(C)C [Hexamethyldisiloxane] — higher, > 90 µM
- CCC(=O)OC/C=C/c1ccccc1 [(2E)-3-Phenylprop-2-en-1-yl propanoate] — higher, > 90 µM
- COC(=O)CC[C@H](N)C(=O)O [(5)-Methyl L-glutamate] — higher, > 50 µM
- Nc1ncnc2c1ncn2[C@@H]1O[C@H](CO)[C@@H](O)[C@H]1O [Adenosine] — higher, > 50 µM
- COc1ccc2[nH]c([S+]([O-])Cc3ncc(C)c(OC)c3C)nc2c1 (centres unmarked) [Omeprazole] — higher, > 90 µM
- CCCSSCCC [Dipropyl disulfide] — higher, > 90 µM
- Cc1cccc(C)c1N(CCCc1cccnc1)C(=O)C(C)N (centres unmarked) [Ro 22-9194] — higher, > 50 µM
- O=C(O)Cc1ccccc1Oc1ccc(Cl)cc1Cl [Fenclofenac] — higher, > 50 µM
- CC(C)NCC(O)c1ccc2ccccc2c1 (centres unmarked) [Pronethalol] — higher, > 50 µM
- Cc1ccccn1 [2-Methylpyridine] — higher, > 90 µM
- CCCCCCCCCOC(C)=O [Nonyl acetate] — higher, > 90 µM
- CNCCC(Oc1ccc(C(F)(F)F)cc1)c1ccccc1 (centres unmarked) [Fluoxetine hydrochloride] — 4.2-fold lower, 10.3 µM
- CCOC(=O)NCCOc1ccc(Oc2ccccc2)cc1 [Fenoxycarb] — higher, > 90 µM
- CCC[C@@H]1C[C@@H](C(=O)N[C@@H]([C@H]2O[C@H](SC)[C@H](OP(=O)(O)O)[C@@H](O)[C@H]2O)[C@H](C)Cl)N(C)C1 [Clindamycin phosphate] — higher, > 50 µM
- Cc1ccc(C(C)C)cc1 [p-Cymene] — higher, > 90 µM
- CC(Oc1cc(Cl)c(Cl)cc1Cl)C(=O)O (centres unmarked) [2-(2,4,5-Trichlorophenoxy)propionic acid] — higher, > 90 µM
- CO[Si](CCCNCCN)(OC)OC [N-[3-(Trimethoxysilyl)propyl]ethane-1,2-diamine] — higher, > 90 µM
- CN1C2=CC(=O)/C(=N\NC(N)=O)C=C2CC1S(=O)(=O)O (centres unmarked) [Carbazochrome sodium sulfonate] — higher, > 50 µM
- Cn1c(N)c(N=O)c(=O)n(C)c1=O [6-Amino-1,3-dimethyl-5-nitroso-2,4(1H,3H)-pyrimidinedione] — higher, > 90 µM
- CCCC/C=C\CCCCCCCCCC=O [(Z)-11-Hexadecenal] — higher, > 90 µM
- CCCCC(CC)COC(=O)c1ccccc1C(=O)O (centres unmarked) [MEHP] — higher, > 90 µM
- Cn1c(=O)c2c(ncn2CCO)n(C)c1=O [Etofylline] — higher, > 50 µM
- CC(CN)CCCN (centres unmarked) — higher, > 90 µM
- C=Cc1ccc(C(C)(C)C)cc1 [4-tert-Butylstyrene] — higher, > 90 µM
- CC1=NC(C)OC1C (centres unmarked) [2,4,5-Trimethyl-3-oxazoline] — higher, > 90 µM

same assay, conditions: rat, gh3-tre-luc cells, AC50 (uM) modified / 1000, Tox21_110001=Tox21_110539; viability, 1 nM T3 present, 24 h

With `O=P1(NCCCl)OCCCN1CCCl` (centres unmarked) [Ifosfamide] the CC50 at 24 h was > 20 µM.

same assay, conditions: rat, gh3-tre-luc cells, AC50 (uM) modified / 1000, Tox21_110001=Tox21_111618; viability, 1 nM T3 present, 24 h

With `NNc1ccccc1` [Phenylhydrazine hydrochloride] the CC50 at 24 h was > 50 µM.

same assay, conditions: rat, gh3-tre-luc cells, AC50 (uM) modified / 1000, Tox21_110001=Tox21_112865; viability, 1 nM T3 present, 24 h

With `CCN[C@H](C)Cc1cccc(C(F)(F)F)c1` [(-)-Fenfluramine hydrochloride] the CC50 at 24 h was 52.7 µM.

same assay, conditions: rat, gh3-tre-luc cells, AC50 (uM) modified / 1000, Tox21_110001=Tox21_112877; viability, 1 nM T3 present, 24 h

`CC(C)=CCN1CC[C@@]2(C)c3cc(O)ccc3C[C@@H]1[C@@H]2C` [(-)-Pentazocine succinate] gave a CC50 at 24 h of 34.4 µM.

same assay, conditions: rat, gh3-tre-luc cells, AC50 (uM) modified / 1000, Tox21_110001=Tox21_201815; viability, 1 nM T3 present, 24 h

In the case of `O=P1(NCCCl)OCCCN1CCCl` (centres unmarked) [Ifosfamide], the CC50 at 24 h was > 90 µM.

same assay, conditions: rat, gh3-tre-luc cells, AC50 (uM) modified / 1000, Tox21_110001=Tox21_202198; viability, 1 nM T3 present, 24 h

With `NNc1ccccc1` [Phenylhydrazine hydrochloride] the CC50 at 24 h was 40.6 µM.

same assay, conditions: rat, gh3-tre-luc cells, AC50 (uM) modified / 1000, Tox21_110001=Tox21_302936; viability, 1 nM T3 present, 24 h

`NNc1ccccc1` [Phenylhydrazine hydrochloride] showed a CC50 at 24 h of 66.7 µM.

same assay, conditions: rat, gh3-tre-luc cells, AC50 (uM) modified / 1000, Tox21_110001=Tox21_400063; viability, 1 nM T3 present, 24 h

In the case of `c1cc2ccc3cccc4ccc(c1)c2c34` [Pyrene], the CC50 at 24 h was > 100 µM.
